From US20130072533A1, “COMPOUNDS WITH BOTH ANALGESIC AND ANTI-HYPERALGESIC EFFICACY” (priority 2010, published 2013)
Structures can show the parent of a compound that is named as a salt.

Columns and labels:
[1] = system: spontaneous motility and exploratory activity of the mouse; assay: Hole-board test; assay type: in vivo
Description: (§1) In particular, in the case of the rotarod, the number of falls from the rotating rod progressively decreases with repeated falls. This confirms that the observed anti-hyperalgesic effects are not due to a change in the animal's behaviour.

[2] = system: motor coordination of the mouse; assay: Rotarod test; assay type: in vivo
Description: as §1

[3] = system: acetic acid induced writhes in mice; assay: Abdominal writhing test (acetic acid 0.6%); assay type: in vivo, mouse
Procedure: The 10 mg kg^−1 per os dose was also found to be effective.

[4] = system: oxaliplatin induced hyperalgesia in the rat; assay: Paw pressure test, oxaliplatin-induced hyperalgesia; assay type: in vivo; conditions: oxaliplatin rats
[5] = system: osteoarthritis induced pain (MIA) in the rat; assay: Paw pressure test, osteoarthritis induced pain (intra-articular monosodium iodoacetate); assay type: in vivo; conditions: for PAW PRESSURE, AFTER TREATMENT (15 min) / PAW PRESSURE, AFTER TREATMENT 30 min / PAW PRESSURE, Pre-test: MIA rats
Procedure: At the same doses of 10 and 30 mg kg^−1 per os, the racemic mixture under study was also found to be effective in reversing the pain threshold reduction induced by the intra-articular Injection of monoiodide acetate at a dose of 2 mg in a 25 μl volume (osteoarthritis model). In this case the effect is statistically significant up to 45 minutes after administration at the lower dose and up to 60 minutes at the three-fold dose.

[6] = system: pain threshold of the mouse; assay: Hot plate test (acute thermal stimulus); assay type: in vivo; conditions: for HOT PLATE TEST, 15 min / HOT PLATE TEST, 30 min / HOT PLATE TEST, 45 min / HOT PLATE TEST, 60 min / HOT PLATE TEST, Pre-test: mice
[7] = system: hyperalgesia induced in the rat by loose ligation of the sciatic nerve; assay: Paw pressure test, rat mononeuropathy (loose ligation of the sciatic nerve); assay type: in vivo
Procedure: In particular, a racemic mixture of the compounds of formula (I) in the form of sodium salt, in which the stereogenic centre deriving from camosine is in the L configuration, was subjected to in vivo pharmacological tests which have enabled their surprising analgesic effects to be discovered.
The observed effect is greater, albeit slightly, than that obtained by tramadol 100 mg kg^−1 per os and pregabalin 200 mg kg^−1 per os, in the same experimental model.

[8] = 30 mg kg^−1 per os, 30 min before the test

## O=C(CCCCC1CCSS1)NCCC(=O)NC(Cc1cnc[nH]1)C(=O)O (racemic) (as salt: sodium) [Compound 2]
other
  melting point: > 213 °C (dec.)

## O=C(CCCCC1CCSS1)NCCC(=O)NC(Cc1cnc[nH]1)C(=O)O (racemic) [Compound 2]
[1]; 30 mg kg^−1 per os
  change of behavioural parameters: spontaneous motility and exploratory activity (hole-board): does not alter the behavioural parameters
[1]; 30 mg/kg per os, mice
  No. of inspections: 37.8 ± 7.5
  No. of movements: 30.3 ± 7.7
[2]; 30 mg kg^−1 per os
  change of behavioural parameters: motor coordination (rotarod): does not alter the behavioural parameters
[2]; 30 mg/kg per os, mice, 15 min
  FALLS IN 30 SEC, 15 min: 3.9 ± 0.3
[2]; 30 mg/kg per os, mice, 30 min
  FALLS IN 30 SEC, 30 min: 1.3 ± 0.3
[2]; 30 mg/kg per os, mice, 45 min
  FALLS IN 30 SEC, 45 min: 0.8 ± 0.2
[2]; 30 mg/kg per os, mice, pre-test
  FALLS IN 30 SEC, Pre-test: 5.2 ± 0.3
[3]; 1 mg kg^−1 per os, 30 min before the test
  no. of writhes: 28.5 ± 2.8
[3]; 10 mg kg^−1 per os, 30 min before the test
  no. of writhes: 21.8 ± 3.1
[3]; 30 mg kg^−1 per os with naloxone 1 mg kg^−1 i.p. 15 min before
  no. of writhes: 13.6 ± 3.0
[3]; [8]
  no. of writhes: 12.7 ± 2.6
[3]; 30 mg kg^−1 per os, naloxone 1 mg kg^−1 i.p.
  antagonism of the analgesia by naloxone: not antagonized by the opioid antagonist naloxone
[4]; 10 mg/kg per os
  PAW PRESSURE TEST, AFTER TREATMENT 15 min: 34.6 ± 3.1^ g
  PAW PRESSURE TEST, AFTER TREATMENT 30 min: 36.7 ± 3.5^ g
  PAW PRESSURE TEST, AFTER TREATMENT 45 min: 31.9 ± 3.5 g
  PAW PRESSURE TEST, AFTER TREATMENT 60 min: 26.9 ± 2.8 g
  PAW PRESSURE TEST, Pre-test: 23.8 ± 3.6 g
[4]; 30 mg/kg per os
  PAW PRESSURE TEST, AFTER TREATMENT 15 min: 43.6 ± 3.9 g
  PAW PRESSURE TEST, AFTER TREATMENT 30 min: 48.9 ± 3.6 g
  PAW PRESSURE TEST, AFTER TREATMENT 45 min: 41.6 ± 3.6 g
  PAW PRESSURE TEST, AFTER TREATMENT 60 min: 31.7 ± 3.3 g
  PAW PRESSURE TEST, Pre-test: 22.9 ± 3.5 g
[5]; 10 mg/kg p.o.
  PAW PRESSURE, AFTER TREATMENT (15 min): 49.3 ± 2.5 g
  PAW PRESSURE, AFTER TREATMENT 30 min: 45.3 ± 3.9 g
  PAW PRESSURE, Pre-test: 24.5 ± 2.1 g
[5]; 30 mg/kg p.o.
  PAW PRESSURE, AFTER TREATMENT (15 min): 59.1 ± 3.3 g
  PAW PRESSURE, AFTER TREATMENT 30 min: 54.7 ± 3.6 g
  PAW PRESSURE, Pre-test: 24.4 ± 2.5 g
[5]; lower dose (10 mg kg^−1 per os)
  time after administration up to which the effect is statistically significant: up to 45 minutes
[5]; three-fold dose (30 mg kg^−1 per os)
  time after administration up to which the effect is statistically significant: up to 60 minutes
[6]; 1 mg/kg per os
  HOT PLATE TEST, 15 min: 18.7 ± 2.7
  HOT PLATE TEST, 30 min: 25.1 ± 2.7
  HOT PLATE TEST, 45 min: 14.0 ± 2.0
  HOT PLATE TEST, 60 min: 15.7 ± 2.6
  HOT PLATE TEST, Pre-test: 15.7 ± 0.8
[6]; 10 mg/kg per os
  HOT PLATE TEST, 15 min: 25.9 ± 2.8
  HOT PLATE TEST, 30 min: 22.3 ± 2.6
  HOT PLATE TEST, 45 min: 19.3 ± 1.9
  HOT PLATE TEST, 60 min: 17.4 ± 0.8
  HOT PLATE TEST, Pre-test: 15.3 ± 0.9
[6]; 30 mg/kg per os
  HOT PLATE TEST, 15 min: 29.7 ± 2.8
  HOT PLATE TEST, 30 min: 26.0 ± 2.7
  HOT PLATE TEST, 45 min: 20.3 ± 2.9
  HOT PLATE TEST, 60 min: 18.7 ± 2.1
  HOT PLATE TEST, Pre-test: 15.7 ± 1.3
[6]; dose range between 1 and 30 mg kg^−1 per os
  rise of the pain threshold: able to raise the pain threshold in a dose-dependent manner
[7]; 10 mg/kg per os
  onset of the effect after administration: 15 min
  time up to which the effect remained unchanged: up to 45 minutes
[7]; 10 mg/kg per os, left paw
  PAW PRESSURE, AFTER TREATMENT (15 min): 69.5 ± 4.4 g
  PAW PRESSURE, BEFORE TREATMENT: 61.9 ± 3.4 g
[7]; 10 mg/kg per os, ligation 14 days earlier
  reversal of hyperalgesia: able to reverse, in a statistically significant manner
[7]; 10 mg/kg per os, right paw
  PAW PRESSURE, AFTER TREATMENT (15 min): 48.3 ± 3.5 g
  PAW PRESSURE, BEFORE TREATMENT: 25.2 ± 3.3 g
[7]; 30 mg/kg per os, left paw
  PAW PRESSURE, AFTER TREATMENT (15 min): 81.6 ± 3.1 g
  PAW PRESSURE, BEFORE TREATMENT: 59.2 ± 3.8 g
[7]; 30 mg/kg per os, right paw
  PAW PRESSURE, AFTER TREATMENT (15 min): 66.3 ± 3.3 g
  PAW PRESSURE, BEFORE TREATMENT: 24.8 ± 3.2 g

## CC(C)Cc1ccc(C(C)C(=O)O)cc1 (stereo not drawn) [IBUPROFEN, ibuprofen, reference compound]
[3]; [8]
  no. of writhes: 20.3 ± 2.2
[3]; 100 mg kg^−1 per os, 30 min before the test
  no. of writhes: 13.5 ± 2.0

## CC(C)C[C@H](CN)CC(=O)O [PREGABALIN, pregabalin, reference compound]
[7]; 200 mg/kg per os, left paw
  PAW PRESSURE, AFTER TREATMENT (15 min): 70.4 ± 3.5 g
  PAW PRESSURE, BEFORE TREATMENT: 57.3 ± 3.5 g
[7]; 200 mg/kg per os, right paw
  PAW PRESSURE, AFTER TREATMENT (15 min): 58.2 ± 3.1 g
  PAW PRESSURE, BEFORE TREATMENT: 26.3 ± 3.0 g

## COc1cccc(C2(O)CCCCC2CN(C)C)c1 (stereo not drawn) [TRAMADOL, tramadol, reference compound]
[7]; 100 mg/kg per os, left paw
  PAW PRESSURE, AFTER TREATMENT (15 min): 72.3 ± 3.0^ g
  PAW PRESSURE, BEFORE TREATMENT: 58.3 ± 3.1 g
[7]; 100 mg/kg per os, right paw
  PAW PRESSURE, AFTER TREATMENT (15 min): 55.8 ± 2.5 g
  PAW PRESSURE, BEFORE TREATMENT: 25.7 ± 2.2 g
